ChEMBL document CHEMBL1201862, “PubChem BioAssay data set” (2004)
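Growth conditions: 96-well plates. Treatment: test compound, 48 hours, 5 concentrations. Analysis: linear interpolation between bracketing concentrations; unreached endpoints set to highest concentration. At the GI50, growth is halved.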 Active and inactive are the calls of the source. Cut-off read from the data, not from the text of the source: active = GI50 up to about 1.1 µM and inactive = higher.

Experiments:
Assay in all cases: inhibition of tumour cell growth, NCI panel, 48 h
T47D = test system: T47D
K562 = test system: K562
SN12C = test system: SN12C
MDA-MB-231 = test system: MDA-MB-231
RXF 393 = test system: RXF 393
OVCAR-3 = test system: OVCAR-3
EKVX = test system: EKVX
LOX IMVI = test system: LOX IMVI
SNB-19 = test system: SNB-19
MCF7 = test system: MCF7
UACC-257 = test system: UACC-257
SR = test system: SR
DU-145 = test system: DU-145
A549 = test system: A549
SK-MEL-5 = test system: SK-MEL-5
UACC-62 = test system: UACC-62
U-251 = test system: U-251
KM12 = test system: KM12
UO-31 = test system: UO-31

SMILES	GI50 (T47D)	GI50 (K562)	GI50 (SN12C)	GI50 (MDA-MB-231)	GI50 (RXF 393)	GI50 (OVCAR-3)	GI50 (EKVX)	GI50 (LOX IMVI)	GI50 (SNB-19)	GI50 (MCF7)	GI50 (UACC-257)	GI50 (SR)	GI50 (DU-145)	GI50 (A549)	GI50 (SK-MEL-5)	GI50 (UACC-62)	GI50 (U-251)	GI50 (KM12)	GI50 (UO-31)
COc1ccc(C(=O)/C=C/c2ccc(O)c(O)c2F)c(OC)c1	0.649 µM (active)	2.56 µM (inactive)	3.89 µM (inactive)	9.82 µM (inactive)	4.35 µM (inactive)	1.05 µM (active)	9.08 µM (inactive)	5.61 µM (inactive)	8.3 µM (inactive)	0.279 µM (active)	9.08 µM (inactive)	0.893 µM (active)	3.44 µM (inactive)	11 µM (inactive)	1.61 µM (inactive)	7.69 µM (inactive)	2.94 µM (inactive)	4.99 µM (inactive)	2.56 µM (inactive)
CC(=O)OCCCOCn1c(Cc2ccccc2)c(C)c(=O)[nH]c1=O	> 100 µM (inactive)	> 100 µM (inactive)	> 100 µM (inactive)	> 100 µM (inactive)	> 100 µM (inactive)	> 100 µM (inactive)	> 100 µM (inactive)	> 100 µM (inactive)	> 100 µM (inactive)	> 100 µM (inactive)	> 100 µM (inactive)	> 100 µM (inactive)	> 100 µM (inactive)	> 100 µM (inactive)	> 100 µM (inactive)	> 100 µM (inactive)	> 100 µM (inactive)	> 100 µM (inactive)	> 100 µM (inactive)
C[C@@H]1CCC2[C@@H](C)C(=O)O[C@@H]3C4C[C@@H]1[C@@]23OO[C@@]4(C)O (stereo not given in full)	87.3 µM (inactive)	> 100 µM (inactive)	> 100 µM (inactive)	> 100 µM (inactive)	60.3 µM (inactive)	> 100 µM (inactive)	57.7 µM (inactive)	23.1 µM (inactive)	> 100 µM (inactive)	62.8 µM (inactive)	> 100 µM (inactive)	> 100 µM (inactive)	71.4 µM (inactive)	> 100 µM (inactive)	2.81 µM (inactive)	> 100 µM (inactive)	48.8 µM (inactive)	> 100 µM (inactive)	27.9 µM (inactive)
c1cc2cc(Cc3ccc4[nH]ccc4c3)ccc2[nH]1	15.6 µM (inactive)	10 µM (inactive)	17.4 µM (inactive)	16.5 µM (inactive)	19.6 µM (inactive)	12.8 µM (inactive)	15.3 µM (inactive)	27.8 µM (inactive)	21.5 µM (inactive)	14.1 µM (inactive)	21.9 µM (inactive)	5.78 µM (inactive)	22.9 µM (inactive)	16.2 µM (inactive)	16.1 µM (inactive)	17.2 µM (inactive)	15.4 µM (inactive)	14.2 µM (inactive)	16.2 µM (inactive)
NC(Cc1c2ccccc2cc2ccccc12)C(=O)O (stereo not given)	> 100 µM (inactive)	> 100 µM (inactive)	54.3 µM (inactive)	> 100 µM (inactive)	> 100 µM (inactive)	> 100 µM (inactive)	> 100 µM (inactive)	> 100 µM (inactive)	> 100 µM (inactive)	> 100 µM (inactive)	> 100 µM (inactive)	68.9 µM (inactive)	85.1 µM (inactive)	> 100 µM (inactive)	47.4 µM (inactive)	76.9 µM (inactive)	> 100 µM (inactive)	> 100 µM (inactive)	78.7 µM (inactive)
O=C(c1ccccc1)c1sc2c(=O)c(C(=O)c3ccccc3)c(C(=O)c3ccccc3)sc2c(=O)c1C(=O)c1ccccc1	47.5 µM (inactive)	15.9 µM (inactive)	54.8 µM (inactive)	> 100 µM (inactive)	23.8 µM (inactive)	98.6 µM (inactive)	> 100 µM (inactive)	25.1 µM (inactive)	55.3 µM (inactive)	23.7 µM (inactive)	> 100 µM (inactive)	4.88 µM (inactive)	> 100 µM (inactive)	> 100 µM (inactive)	32 µM (inactive)	> 100 µM (inactive)	44.3 µM (inactive)	> 100 µM (inactive)	5.97 µM (inactive)
COc1ccc(C[C@H]2NC[C@H](OC(C)=O)[C@H]2OC(C)=O)cc1	0.112 µM (active)	0.221 µM (active)	0.124 µM (active)	0.308 µM (active)	0.144 µM (active)	0.233 µM (active)	0.136 µM (active)	0.067 µM (active)	0.0935 µM (active)	0.14 µM (active)	0.21 µM (active)	0.177 µM (active)	0.0726 µM (active)	0.151 µM (active)	0.0665 µM (active)	0.288 µM (active)	0.304 µM (active)	0.192 µM (active)	0.0583 µM (active)
Cc1cn2c(/C=C3/C(=O)Nc4ccccc43)c(-c3ccccc3)nc2s1	38.9 µM (inactive)	> 100 µM (inactive)	93.1 µM (inactive)	18.7 µM (inactive)	27 µM (inactive)	85.3 µM (inactive)	71.3 µM (inactive)	91 µM (inactive)	24.3 µM (inactive)	29.4 µM (inactive)	> 100 µM (inactive)	> 100 µM (inactive)	78.3 µM (inactive)	> 100 µM (inactive)	71.1 µM (inactive)	67.6 µM (inactive)	29.3 µM (inactive)	> 100 µM (inactive)	23.2 µM (inactive)
CC(C)(C)OC(=O)NC(Cc1ccc(OCc2ccccc2)cn1)C(=O)N1CCCC1 (stereo not given)	27.4 µM (inactive)	67.8 µM (inactive)	77.6 µM (inactive)	80 µM (inactive)	69.3 µM (inactive)	25.6 µM (inactive)	66.8 µM (inactive)	72.1 µM (inactive)	> 100 µM (inactive)	62.1 µM (inactive)	37.4 µM (inactive)	> 100 µM (inactive)	> 100 µM (inactive)	> 100 µM (inactive)	19.3 µM (inactive)	54.3 µM (inactive)	86.7 µM (inactive)	65.5 µM (inactive)	> 100 µM (inactive)
O=C(NNC(=O)c1ccco1)c1ccco1	> 100 µM (inactive)	> 100 µM (inactive)	> 100 µM (inactive)	> 100 µM (inactive)	> 100 µM (inactive)	> 100 µM (inactive)	> 100 µM (inactive)	> 100 µM (inactive)	> 100 µM (inactive)	> 100 µM (inactive)	> 100 µM (inactive)	> 100 µM (inactive)	> 100 µM (inactive)	> 100 µM (inactive)	> 100 µM (inactive)	> 100 µM (inactive)	> 100 µM (inactive)	> 100 µM (inactive)	> 100 µM (inactive)
N/N=C1/C(=N/O)CCc2nonc21	> 100 µM (inactive)	> 100 µM (inactive)	> 100 µM (inactive)	> 100 µM (inactive)	> 100 µM (inactive)	> 100 µM (inactive)	41.6 µM (inactive)	> 100 µM (inactive)	84.1 µM (inactive)	> 100 µM (inactive)	> 100 µM (inactive)	> 100 µM (inactive)	> 100 µM (inactive)	> 100 µM (inactive)	> 100 µM (inactive)	> 100 µM (inactive)	> 100 µM (inactive)	> 100 µM (inactive)	28.6 µM (inactive)
c1ccc2c(c1)c1c3c(c4c(n32)=NCCN4)CCC1	20.7 µM (inactive)	27.6 µM (inactive)	18.5 µM (inactive)	24.2 µM (inactive)	17.9 µM (inactive)	34.8 µM (inactive)	20.9 µM (inactive)	21.1 µM (inactive)	89.9 µM (inactive)	24.8 µM (inactive)	38.1 µM (inactive)	17.4 µM (inactive)	55.3 µM (inactive)	48.5 µM (inactive)	32.4 µM (inactive)	30.1 µM (inactive)	33.8 µM (inactive)	27 µM (inactive)	45.2 µM (inactive)
CC1(C)OC2COC3([C@@H]4OC(C)(C)O[C@@H]4CO)OC(C)(C)OC3C2O1 (stereo not given in full)	> 100 µM (inactive)	> 100 µM (inactive)	> 100 µM (inactive)	> 100 µM (inactive)	> 100 µM (inactive)	> 100 µM (inactive)	> 100 µM (inactive)	> 100 µM (inactive)	> 100 µM (inactive)	> 100 µM (inactive)	> 100 µM (inactive)	> 100 µM (inactive)	> 100 µM (inactive)	> 100 µM (inactive)	> 100 µM (inactive)	> 100 µM (inactive)	> 100 µM (inactive)	> 100 µM (inactive)	> 100 µM (inactive)
O/N=C1/CCCCC1NO (stereo not given)	> 100 µM (inactive)	> 100 µM (inactive)	> 100 µM (inactive)	> 100 µM (inactive)	> 100 µM (inactive)	> 100 µM (inactive)	> 100 µM (inactive)	> 100 µM (inactive)	> 100 µM (inactive)	> 100 µM (inactive)	> 100 µM (inactive)	> 100 µM (inactive)	> 100 µM (inactive)	> 100 µM (inactive)	> 100 µM (inactive)	> 100 µM (inactive)	> 100 µM (inactive)	> 100 µM (inactive)	> 100 µM (inactive)
COc1ccc(NC2C(=O)C3(C)CCC2C3(C)C)cc1 (stereo not given)	> 100 µM (inactive)	63.7 µM (inactive)	> 100 µM (inactive)	> 100 µM (inactive)	> 100 µM (inactive)	> 100 µM (inactive)	> 100 µM (inactive)	> 100 µM (inactive)	> 100 µM (inactive)	> 100 µM (inactive)	49 µM (inactive)	74.8 µM (inactive)	> 100 µM (inactive)	> 100 µM (inactive)	34.5 µM (inactive)	> 100 µM (inactive)	> 100 µM (inactive)	> 100 µM (inactive)	54.7 µM (inactive)
